Experimental data: patent US12012388B1, “4-chloro-n'-(2-(5-(4-chlorophenyl)-1,3,4-oxadiazol-2-ylthio)acetoxy)benzimidamide as an antimicrobial compound” (KING FAISAL UNIVERSITY, priority 2023, dated 2024)

Columns and labels:
Format in all cases: cell-based
[1] = test system: Bacillus Cereus; assay: Agar plate disc-diffusion, antibacterial activity (inhibition zone); conditions: nutrient agar, 37° C., 48 h, DMSO zone subtracted
Procedure: (§1) The agar plate disc-diffusion method was applied. Sterilized filter papers (6 mm in diameter) were wetted with 10 μL of a solution of 4-chloro-N′-(2-(5-(4-chlorophenyl)-1,3,4-oxadiazol-2-ylthio)acetoxy)benzimidamide (3) to be tested, containing 10 mg/mL in DMSO, and the discs were allowed to air dry. The discs were then placed onto the surface of agar plates (nutrient agar for bacteria and Sabouraud's dextrose agar for fungi) seeded with the test organism. Each plate contained 15 mL of the agar medium, previously seeded with 0.2 mL of the broth culture of each organism pregrown for 18 hours. The plates were incubated at 37° C. for 48 h, and 72 h for fungi. The inhibition zones were measured in mm. Discs impregnated with DMSO were used as a control, and its inhibition zone was subtracted from the tested compound actual inhibition zone.
(§2) The results of the antimicrobial testing can be observed in Tables 1 and 2, below, using ciprofloxacin as a reference.

[2] = test system: Escherichia coli; assay: as above; conditions: nutrient agar, 37° C., 48 h, DMSO zone subtracted
Procedure: as §1, §2

[3] = test system: Pseudomonas aeruginosa; assay: as above; conditions: nutrient agar, 37° C., 48 h, DMSO zone subtracted
Procedure: as §1, §2

[4] = test system: Staphylococcus aureus; assay: as above; conditions: nutrient agar, 37° C., 48 h, DMSO zone subtracted
Procedure: as §1, §2

[5] = test system: Aspergillus flavus; assay: Agar plate disc-diffusion, antifungal activity (inhibition zone); conditions: Sabouraud's dextrose agar, 37° C., 72 h, DMSO zone subtracted
Procedure: as §1, §2

[6] = test system: Chrysosporium keratinophilum; assay: as above; conditions: Sabouraud's dextrose agar, 37° C., 72 h, DMSO zone subtracted
Procedure: as §1, §2

[7] = A = concentration of comp. = 10,000 μL
[8] = B = concentration of comp. = 30.000 μL
[9] = C = concentration of comp. = 50,000 μL

How did the “inhibition zone, Bacillus Cereus, A” value [1, 7] turn out when `N/C(=N\OC(=O)CSc1nnc(-c2ccc(Cl)cc2)o1)c1ccc(Cl)cc1` [Compound 3, 4-chloro-N′-(2-(5-(4-chlorophenyl)-1,3,4-oxadiazol-2-ylthio)acetoxy)benzimidamide] was run?
The value was 20 mm.

What about the “inhibition zone, Bacillus Cereus, B” value [1, 8] of the same compound?
Its value is 26 mm.

What about the “inhibition zone, Bacillus Cereus, C” value [1, 9] of the same compound?
The value was 39 mm.

What about the “inhibition zone, Escherichia coli, A” value [2, 7] of the same compound?
The value was 27 mm.

What about the “inhibition zone, Escherichia coli, B” value [2, 8] of the same compound?
Its value is 34 mm.

And the “inhibition zone, Escherichia coli, C” value [2, 9]?
The value was 41 mm.

What about the “inhibition zone, Pseudomonas aeruginosa, A” value [3, 7] of the same compound?
Its value is 21 mm.

And the “inhibition zone, Pseudomonas aeruginosa, B” value [3, 8]?
Its value is 24 mm.

What about the “inhibition zone, Pseudomonas aeruginosa, C” value [3, 9] of the same compound?
The value was 36 mm.

And the “inhibition zone, Staphylococcus aureus, A” value [4, 7]?
Its value is 19 mm.

And the “inhibition zone, Staphylococcus aureus, B” value [4, 8]?
The value was 24 mm.

What about the “inhibition zone, Staphylococcus aureus, C” value [4, 9] of the same compound?
The value was 37 mm.

And the “inhibition zone, Aspergillus flavus, A” value [5, 7]?
The value was 24 mm.

What about the “inhibition zone, Aspergillus flavus, B” value [5, 8] of the same compound?
The value was 26 mm.

And the “inhibition zone, Aspergillus flavus, C” value [5, 9]?
The value was 35 mm.

And the “inhibition zone, Chrysosporium keratinophilum, A” value [6, 7]?
The value was 25 mm.

And the “inhibition zone, Chrysosporium keratinophilum, B” value [6, 8]?
Its value is 27 mm.

What about the “inhibition zone, Chrysosporium keratinophilum, C” value [6, 9] of the same compound?
Its value is 40 mm.
